Results reported in publication PMC12114274, “Synthesis of 3-Carboxy-6-sulfamoylquinolones and Mefloquine-Based Compounds as Panx1 Blockers: Molecular Docking, Electrophysiological and Cell Culture Studies” (Molecules, 2025).

Columns and labels:
Assay type in all cases: cell-based
mPanx1 [1] = molecular target: T1, mPanx1 (Mus musculus, UniProt Q9JIP4); test: whole-cell patch clamp, CHO cells transfected with mPanx1, single dose […]; conditions: read-out: I% ^a
T1 construct: gene Panx1

mPanx1 [2] = molecular target: T1, mPanx1; test: whole-cell patch clamp, CHO cells transfected with mPanx1, dose-response (IC50 low micromolar, number not given); conditions: read-out: I% ^a
mPanx1 [3] = molecular target: T1, mPanx1; test: whole-cell patch clamp, CHO cells transfected with mPanx1, dose-response

T1 sequence (Q9JIP4 whole entry): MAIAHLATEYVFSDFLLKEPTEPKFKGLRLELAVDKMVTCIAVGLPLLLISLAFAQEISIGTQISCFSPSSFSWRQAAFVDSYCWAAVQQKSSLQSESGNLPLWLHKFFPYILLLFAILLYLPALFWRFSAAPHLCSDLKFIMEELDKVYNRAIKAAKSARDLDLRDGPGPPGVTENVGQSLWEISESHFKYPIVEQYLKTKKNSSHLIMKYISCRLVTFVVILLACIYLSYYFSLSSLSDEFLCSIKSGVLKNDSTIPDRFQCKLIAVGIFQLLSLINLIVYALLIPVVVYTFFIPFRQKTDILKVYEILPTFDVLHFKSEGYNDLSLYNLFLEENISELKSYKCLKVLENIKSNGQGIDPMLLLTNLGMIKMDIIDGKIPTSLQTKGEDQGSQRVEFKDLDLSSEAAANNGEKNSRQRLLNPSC

Row | inhibition at 50 µM (mPanx1 [1]) | SMILES | also measured
1 | 54.6 ± 6% | CCN(CC)S(=O)(=O)c1ccc2c(c1)c(=O)c(C(=O)O)cn2Cc1ccccc1 [12a, 1-Benzyl-6-(N,N-diethylsulfamoyl)-4-oxo-1,4-dihydroquinoline-3-carboxylic acid] | –
2 | 57.2 ± 8.5% | CCCN(CCC)S(=O)(=O)c1ccc2c(c1)c(=O)c(C(=O)O)cn2CCc1ccccc1 [12g, 6-(N,N-Dipropylsulfamoyl)-4-oxo-1-phenethyl-1,4-dihydroquinoline-3-carboxylic acid] | –
3 | 48.8 ± 5.9% | NS(=O)(=O)c1ccc2c(c1)c(=O)c(C(=O)O)cn2Cc1ccc(C(=O)O)cc1 [5b, 1-(4-Carboxybenzyl)-4-oxo-6-sulfamoyl-1,4-dihydroquinoline-3-carboxylic acid] | –
4 | – | O=C(O)c1ccc(CN(Cc2ccc(C(=O)O)cc2)S(=O)(=O)c2ccc3c(c2)c(=O)c(C(=O)O)cn3Cc2ccc(C(=O)O)cc2)cc1 [compound 7, 4,4′-{[((3-carboxy-1-(4-carboxybenzyl)-4-oxo-1,4-dihydroquinolin-6-yl)sulfonyl)azanediyl]bis(methylene)} dibenzoic acid] | inhibition at 50 µM (mPanx1 [2]): 79.7 ± 7.2%
5 | 73.2 ± 11.9% | CCN(CC)S(=O)(=O)c1ccc2c(c1)c(=O)c(C(=O)O)cn2Cc1ccc(C(=O)O)cc1 [12b, 1-(4-Carboxybenzyl)-6-(N,N-diethylsulfamoyl)-4-oxo-1,4-dihydroquinoline-3-carboxylic acid] | –
6 | – | CCCN(CCC)S(=O)(=O)c1ccc2c(c1)c(=O)c(C(=O)O)cn2Cc1ccc(S(N)(=O)=O)cc1 [12f, 6-(N,N-Dipropylsulfamoyl)-4-oxo-1-(4-sulfamoylbenzyl)-1,4-dihydroquinoline-3-carboxylic acid] | IC50 (mPanx1 [3]): 2700 nM
7 | – | CCCN(CCC)S(=O)(=O)c1ccc2c(c1)c(=O)c(C(=O)O)cn2Cc1ccc(C(=O)O)cc1 [12e, 1-(4-Carboxybenzyl)-6-(N,N-dipropylsulfamoyl)-4-oxo-1,4-dihydroquinoline-3-carboxylic acid] | inhibition at 50 µM (mPanx1 [2]): 84.8 ± 4.4%
8 | 49.5 ± 6% | CCN(CC)S(=O)(=O)c1ccc2c(c1)c(=O)c(C(=O)O)cn2Cc1ccc(S(N)(=O)=O)cc1 [12c, 6-(N,N-Diethylsulfamoyl)-4-oxo-1-(4-sulfamoylbenzyl)-1,4-dihydroquinoline-3-carboxylic acid] | –
